Test results from US5859032A, “Pyridine derivative, anti-ulcer drug, and antibacterial drug” (priority 1996, dated 1999).

What was measured:
[1] = MTT: Cell Damaging and Protecting Effect Test; format: cell-based, Japanese White rabbit; details: rabbit, gastric mucosa cells, 10^-4 M, 37° C., smaller value is better, read-out: MTT: cell damaging rate
Text: MTT: Cell Damaging and Protecting Effect Test
It is confirmed that there is no toxicity in cell level. Those having a toxicity in cell level are inappropriate as an anti-ulcer drug.
A male Japanese White rabbit (2.5 to 3 kg) was anesthetized to death by Nembutal™ and, immediately thereafter, its stomach was removed. The greater curvature of the stomach was incised so as to remove the stomach contents therefrom. After the mucosal surface was washed with HBSS (Hanks' Balanced Salt Solution), the stomach in ice-cooled HBSS was transferred to a laboratory. Then, after the pyloric antrum was removed, the gastric corpus mucosa was separated by a spatula and then minced into 2 to 3 mm^3 pieces in BME (Basal Medium Eagle). Thereafter, these pieces were shaken at 120 to 130 cycles/minute for 15 minutes at 37° C. in BME 60 ml containing 280 U/ml of dispase and 30 to 50 U/ml of collagenase. Here, the concentration of collagenase was appropriately changed for each lot in view of the state of cells. The pieces were washed twice with EBSS (Earle's Balanced Salt Solution) containing 1 mM of EDTA and then shaken in MEM (Minimum Essential Medium) containing 1 mM of EDTA at 37° C. for 5 minutes. Subsequently, they were shaken in the dispase and collagenase having the same concentrations as those mentioned above for 15 minutes so as to remove the supernatant and then further shaken at 37° C. for 50 to 60 minutes at 120 to 130 cycles/minute. Then, after being washed twice with HBSS, Ham F12 containing 2% of Ultrocer GT™ was used to attain the concentration of 1×10^6 cells/ml. Thus formed suspension was dispensed in each well of a 96-well plate by 200 μl. The plate was incubated in the atmosphere composed of 5% CO2 and 95% air at 37° C. for three days so as to attain a confluent state and then subjected to MTT assay.
The sample compound was dissolved in DMSO so as to attain a concentration of 10^-2 M and then diluted with HBSS containing 2% of Ultrocer G™ so as to attain a final concentration of 10^-4 M. To each group, which 8 wells were used for, 10 μl of MTT reagent was added immediately after 100 μl of the medium in each well was exchanged for same volume of the resulting solution of the sample compound. After being incubated in an atmosphere composed of 5% CO2 and 95% air at 37° C. for 4 hours, thus formed solution was centrifuged and then its supernatant was discarded. Subsequently, 100 μl of 100% ethanol was added to the residue so as to dissolve MTT formazan. Then, the absorbance (OD: 570 to 630) was measured by a microplate reader. This method utilizes a phenomenon in which MTT is changed to MTT formazan only by mitochondria of living cells so as to change color.
The cell damaging or cell protecting effect of the sample compound at the final concentration of 10^-4 M was expressed as cell damaging rate (%) as follows:
cell damaging rate (%)=(1-(absorbance in sample group/absorbance in control
Accordingly, the smaller value is better in the cell damaging rate.

[2] = test system: isolated gastric fundic gland; assay: CAP: Acid Secretion Inhibition Test In Vitro ([14C]-aminopyrine uptake test); format: cell-based, Japanese White rabbit; details: Oryctolagus cuniculus, 40 min, 10^-5 M, histamine 10^-5 M, 37° C., read-out: CAP: acid secretion inhibitory rate
Method: CAP: Acid Secretion Inhibition Test In Vitro
The acid secretion inhibitory activity in a cell level is studied. It can also be used for studying the mechanism of the effect. […]
ii-a) Preparation of isolated gastric fundus gland suspension
First, an isolated gastric fundic gland sample was prepared. Namely, a male Japanese White rabbit (2.5 to 3 kg) was anesthetized to death with Nembutal™ and then the abdomen was incised. Immediately thereafter, the stomach was removed and, after its pyloric and cardiac antrum were severed, incised along its greater curvature into two sheets. The gastric contents adhering to the mucosal surface was washed out with ice-cooled PBS (-) and then carefully washed therein. The gastric wall was spread on a cork board with its mucosal surface facing up and the feed and mucus thereon were completely removed with sterile gauze. The mucosa was separated therefrom by a spatula and then collected in ice-cooled PBS (-). After being washed twice with PBS (-), the mucosa was minced into 2-3 mm^3 pieces by scissors. These pieces were further washed twice with a nutrient solution. The nutrient solution comprises 132.4 mM of NaCl, 5.4 mM of KCl, 5 mM of Na2 HPO4. 12H2 O, 1 mM of NaH2 PO4. 2H2 O, 1.2 mM of MgSO4, 1 mM of CaCl 2, 25 mM of HEPES, 2 mg/ml of glucose, and 1 mg/ml of BSA. Into 70 ml of the nutrient solution containing 1 mg/ml of collagenase, minced mucosal pieces were dispersed and intensely stirred in a conical flask with a stirrer at 37° C. for 40 to 60 minutes. During this period, 100% O2 was sprayed on the nutrient solution surface and the pH was appropriately measured such that it was immediately adjusted to pH 7.4, when the value was therebelow, with a base. The nutrient solution was added to the reaction solution so as to attain the total amount of about 200 ml. After being filtered through a mesh, the suspension was divisionally introduced into 50 ml centrifuge tubes and left for 15 minutes such that gastric fundic gland was deposited. The supernatant was repeatedly removed by an aspirator, dispersed in the nutrient solution, and then left such that the gastric fundic gland was washed three times. At this time, without using a pipette, the suspension was alternately introduced into two centrifuge tubes so as to effect dispersion. The number of cells was counted under microscope and adjusted to 1.6×10^6 cells/ml. […]
ii-b) [^14 C]-aminopyrine uptake test
Then, [^14 C]-aminopyrine uptake test was performed. After an Eppendorf tube was weighed, 10 μl (final concentration: 10^-5 M) of histamine dissolved in the above-mentioned nutrient solution, 10 μl (final concentration: 10^-5 M) of the test compound dissolved in DMSO, and 10 μl (final concentration: 0.05 μCi/ml) of [^14 C]-aminopyrine diluted with the nutrient solution were introduced therein and then 970 μl of the isolated gastric fundic gland suspension prepared above was added thereto. Subsequently, this mixture was shaken at 37° C. for 40 minutes at 125 cycles/minute. After being centrifuged for 30 minutes, 200 μl of its supernatant was collected into a mini-vial, while the rest was removed by an aspirator. The gland pellet was completely dried as the tube with its lid being opened was kept for one night in a drying oven at 80° C. and then the lid was closed and the weight was determined at room temperature. Then 100 μl of 1N KOH was added thereto and the tube with its lid being closed was treated at 60° C. for 1 to 2 hours so as to dissolve the pellet. Then, the contents thereof were transferred to a mini-vial. Into the mini-vial containing the supernatant or gland pellet, 4 ml of Atomlite™ was added and then the radioactivity was measured by a liquid scintillation counter. Here, after the radioactivity of the gland pellet was corrected by using a sample in which 20 mM of NaSCN was added so as to cancel the hydrogen ion concentration gradient, the integration ratio of aminopyrine specifically trapped by the gland pellet was calculated. […]

Structure (SMILES) | cytotoxicity at 4 h, 100 µM [1] | inhibition at 10 µM [2]
CC(C)=CCC/C(C)=C/COc1ccc(C(=O)NCCc2ccccn2)cc1 [Example 1, 2-[2-(4-geranyloxybenzoylamino)ethyl]pyridine] | 8% | 97%
CC(C)=CCC/C(C)=C/COc1ccc(C(=O)NCCc2ccncc2)cc1 [Example 2, 4-[2-(4-geranyloxybenzoylamino)ethyl]pyridine] | 7% | 99%
CC(C)=CCC/C(C)=C/COc1ccc(C(=O)NCc2ccncc2)cc1 [Example 3, 4-(4-geranyloxybenzoylaminomethyl)pyridine] | 16% | 99%
CC(C)=CCC/C(C)=C/COc1ccc(C(=O)Nc2cccnc2)cc1 [Example 4, 3-(4-geranyloxybenzoylamino)pyridine] | 6% | 44%
CC(C)=CCOc1ccc(OCC=C(C)C)c(C(=O)NCCc2ccncc2)c1 [Example 6, 4-[2-(2,5-diprenyloxybenzoylamino)ethyl]pyridine] | -94% | 100%
CC(C)=CCC/C(C)=C/COc1ccc(C(=O)NCCNc2cccnc2)cc1 [Example 7, 3-[2-(4-geranyloxybenzoylamino)ethylamino]pyridine] | 48% | 100%
COc1ccc(NCCNC(=O)c2ccc(OC/C=C(\C)CCC=C(C)C)cc2)nc1 [Example 8, 2-[2-(4-geranyloxybenzoylamino)ethylamino]-5-methoxypyridine] | -45% | 97%
CC(C)=CCC/C(C)=C/COc1ccc(C(=O)NCCNc2cc(C)cc(C)n2)cc1 [Example 10, 2,4-dimethyl-6-[2-(4-geranyloxybenzoylamino)ethylamino]pyridine] | 65% | 101%
COc1ccc(SCCNC(=O)c2ccc(OC/C=C(\C)CCC=C(C)C)cc2)nc1 [Example 11, 2-[2-(4-geranyloxybenzoylamino)ethylthio]-5-methoxypyridine] | -34% | 55%
CC(C)=CCC/C(C)=C/COc1ccc(C(=O)NCC(=O)Nc2ccccn2)cc1 [Example 13, 2-[2-(4-geranyloxybenzoylamino)acetylamino]pyridine] | -36% | 31%
